The values that follow come from patent US20260216141A1, “NECROSIS INHIBITOR” (LINKGEVITY LIMITED, priority 2023, published 2026).

In one series the test system is C. elegans. The series can be described thus: C. elegans movement analysis post stress. As to conditions: EGTA 2500 μM in liposomes 3 hrs prior stress; cold, heat, oxidative and toxin stress. It is filed as in vivo, Caenorhabditis elegans. The source says: Movement was scored according to an adapted methodology (from Herndon et al., 2002). Briefly, animals were marked as either: normal movement; or defective movement. Defective movement was defined as worms that are stationary unless touched with a pick, in which case they may only move a few […] forward before stopping again or they may not move at all. 100 animals were used per trial and the percentage of worms with defective movement was scored.
According to the protocol in Shibamura et al., 2009, drug was dissolved in MilliQ water and encapsulated in liposomes. Drug used was EGTA, at a final concentration of 2500 μM. Briefly, L-a-phosphatidylcholine (LαPC) was used to prepare liposomes by first dissolving LαPC in distilled water at the concentration of 96 mg/ml. A ×2 concentration of drug solution was mixed with LαPC to a 1:1 ratio and heated to 65° C. Drug-LαPC solution was then converted into liposomes using a mini-Avanti extruder a 100 nm pore size polycarbonate membrane. MilliQ water encapsulated in liposomes was used a as the empty vector control. Following preparation, 25 μl of the liposome drug solution was spread onto a 25 μl spot OP50 lawn on NGM plates and worms were then picked onto the plates.
The percentage of animals with this defective movement were scored post stress.

For another series, the system named is Hepg2s spheroids. It is filed as cell-based. On the procedure: Media changes were on alternative days. […] DMSO controls were added on each plate.
In some of the following Examples, human 3D cell culture was employed using liver Hepg2 cells. 3D cell culture is known to accurately replicate a cell's native environment. During embryonic development, cells aggregate and self-assemble into complex multi-cellular structures. The same aggregation process can likewise occur in in vitro culture systems if cell-cell cohesion is favoured over cell attachment to a substrate. The resulting 3D cell culture aggregates are known as spheroids. […] A standard method of spheroid formation in U-bottom low adhesion plates was used in the Examples herein.
This is because, as the spheroids grow, only the peripheral cells obtain oxygen and nutrients from the cell culture medium. The inner cells die from cell death necrosis, with the formation of large necrotic cores (observable though use of standard live dead stains). Thus, necrotic core formation represents a naturally occurring hypoxic and nutrient stress. This resembles multiple forms of shock in humans where blood flow carrying nutrients and oxygen is disrupted to certain cells, tissues and/or organs.

The test system of a further series is E. coli. The series can be described thus: E. coli oxidative stress, colony forming units. Type of series: cell-based. As to conditions: EGTA 2500 μM during stress; 50 min 1 mM H2O2. On the procedure:
2 loops of E. coli stationary-phase bacterial cells collected post seeding (80 μL from a culture grown for 12 hrs) on agar plates containing bactopeptone and allowing to grow for 24 hrs was collected in buffer. Bacterial cells were then stressed for 50 min using 1 mM hydrogen peroxide. Treatment is EGTA 2500 μM during stress. Cells were then washed in buffer. Following stress, bacteria was washed in buffer and then diluted 1:500 in MilliQ water and seeded onto agar plates containing bactopeptone and left at 37° C. overnight. This was followed by counting colony forming units (CFU) counted. Three repeats were performed.
Bacteria, E. coli, and yeast, S. pombi, were exposed to toxin hydrogen peroxide stress (stress is for 50 min 1 mM H2O2) with or without high doses (2500 μM; c.f. FIG. 2) of the chelating agent EGTA (inhibitor of the predicted weak spot of loss of calcium ion homeostasis in the cytosol) delivered during the stress.
Following stress, bacteria cells were then placed on agar plates and allowed to grow at 37° C. overnight and colony forming units (CFU) were then counted.

Series [1] has as its system mouse organs (heart, brain, spleen organotypic slices). The series can be described thus: Mouse organotypic slices hypoxia stress, PI/DAPI staining. It is filed as cell-based. The settings on record: 2500 μM EGTA during stress, hypoxia 2.5 hrs in N2 gas bubbled buffer. The source says:
For organotypic cultures, sagittal hippocampal brainslices were taken from wild type mice. Following decapitation, all organs were quickly removed, placed in ice-cold buffer (artificial cerebrospinal fluid (ACSF) [in mmol/L]: NaCl 125, KCl 2.4, NaHCO326, NaH2PO4 1.25, glucose 25, CaCl2 2 [0.5 mmol/L for dissection], MgCl2 1 [5 mmol/L for dissection]; bubbled with carbogen) for brain, and for all other organs Ringers buffer. For brain, to reduce the rate of cell death most dissections were carried out with high-magnesium (5 mmol/L)/low-calcium (0.5 mmol/L) ACSF. The brain was hemisected and a section was cut away by hand that was approximately 100° from the midline surface. The hemispheres were then mounted with superglue on to a slicing stage and 300 μm hippocampal slices were cut with a vibroslicer and transferred to an incubating chamber with circulating ACSF (bubbled with carbogen). All other organs were treated similarly but Ringer's buffer was used instead of ACSF. For the heart and spleen, cross sectional slices going fully across the organ were taken. The slices were incubated at 35° C. for approximately 1 hrs before the incubator was switched off and the bath was allowed to cool to room temperature. […]

In the next series the test system is D. melanogaster. Description: Drosophila cold/freeze stress survival. Type of series: in vivo, Drosophila melanogaster. The settings on record: fed 12 hrs food containing 2500 μM EGTA; 0 degrees for 10 min. The method, then: Animals were under standard culture conditions. On day 1 of adulthood, they were starved for 8 hrs, then fed 12 hrs+/−EGTA 2500 μM. Following this, the animals were moved to 0° C. for 10 min and then recovered and survival measured.
Fruit flies, Drosophila melanogaster, were likewise exposed to heat and cold stress. […]. Flies were starved for a short period of 8 hrs and then fed for 12 hrs yeast containing high doses of a calcium chelating agent to ensure an adequate amount of drug entered the animals; doses used were: 0 or 2500 μM EGTA. This was followed by cold/freeze stress, where animals were placed at 0° C. for 10 min, and then animals were scored for survival every 12 hrs. […] Thus, like with single celled yeast and bacteria and C. elegans, a full organism level protective effect of blocking the predicted weak spots associated with cell death necrosis was also seen in fruit flies.

Entries after “also recorded” stand apart in the source; their conditions may differ.

Take `O=C(O)CN(CCOCCOCCN(CC(=O)O)CC(=O)O)CC(=O)O` [EGTA, ethylene glycol-bis(β-aminoethyl ether)-N,N,N′,N′-tetraacetic acid]: the “movement defects post stress” value in the series on C. elegans is listed as “reduced movement defects”. The “dosage needed to suppress necrosis” value with Hepg2s spheroids (Hepg2s spheroids, day 7) came out at 2500 µM. Besides, in the series with Hepg2s spheroids (time points earlier than day 7), the “toxicity at earlier time points” value is recorded as “some mild, but not statistically significant, toxicity”. In addition, the “E. coli death / colony forming units (CFU) following oxidative stress” value with E. coli was “death is prevented”. For the same molecule, in series [1], the “% of necrotic cells (PI stain) relative to all cells (DAPI stain)” value is reported as “necrosis cell death is prevented; also recorded: marked improvement in all 3 tissue types”. In addition, the “D. melanogaster death / survival following cold/freeze stress” value in the series on D. melanogaster is listed as “death is prevented; also recorded: significant protective effect”.
